# Reference: patent US20260232608A1, “AMINOTHIOLS FOR THE TREATMENT OF CONDITIONS CHARACTERIZED BY PROTEIN MISFOLDING OR AGGREGATION, MITOCHONDRIAL DYSFUNCTION, OR CHRONIC INFLAMMATION” (Obvia Pharmaceuticals, Ltd., priority 2023, published 2026)
# “Also recorded” adds a separate entry of the source.
# Columns and labels:
# [1] = Consumption of PrC-210 thiol by hydrogen peroxide, with or without ammonium acetate; assay type: physicochemical; details: pH 7
# Protocol: We believe that the increased reactivity of the thiol in the presence of negative charges, such as ammonium acetate, also occurs when PrC-210-thiol is in close proximity to other reactive structures, such as hydrogen peroxide. We have studied hydrogen peroxide, as it is a non-radical oxygen species with a much longer half-life than superoxide. We added hydrogen peroxide to an aqueous 5 mM solution of PrC-210 thiol at pH 7.
# [2] = within its therapeutic window; cited from earlier work
# [3] = system: SOD1^G93A mice; test: Body weight of SOD1G93A ALS mice; assay type: in vivo, mouse; details: systemic PrC-210 0.1 MTD, IP
# Source text: This experiment was designed to illuminate whether PrC-210 is able to stop the progression of diseases which are based on protein aggregation, such as Amyotrophic Lateral Sclerosis (ALS). […] Weight loss was progressive and was in exponential decline along with onset of ALS motor symptoms. […] As ALS pathology is based upon protein aggregation, the findings in this experiment support our inventive concept that PrC-210 is able to suppress protein misfolding and thereby suppress the pathology of these diseases. This invention applies to all neuronal, organ specific and systemic diseases which are caused by protein aggregations, such as neurodegenerative diseases, local and systemic amyloidosis, Type II diabetes, cataract of the eye, etc.
# [4] = pKa of the two PrC-210 amines from NMR pH titration; assay type: physicochemical; details: pH titrations between pH 9.0 and 13.0; FIG. 3 legend: 3 pH units above physiological pH
# Protocol: (§1) We established the chemical structure profile of PrC-210 using Nuclear Magnetic Resonance (NMR) spectroscopy experiments. […] This structural stability of the PrC-210 mono-thiol form in this pH range remained for at least the observed 24 hours. […] In our pH titrations between pH 9.0 and 13.0, we saw clear structural changes to PrC-210; from these progressive changes, we calculated that the pKas of the two PrC-210 amines are all substantially above the pH (pH 7.2) of physiological conditions (FIG. 3).
# [5] = Pharmacokinetics study with [14]C-labeled PrC-210, intravenous, male rats; assay type: in vivo; details: after 48 hr
# Source text: We were also interested to see whether PrC-210-cysteine disulfide formation is transient or permanent; permanent PrC-210 hetero-disulfide formation with cellular proteins would be expected to have an impact on protein function and could translate into unwanted, toxic, side effects and should be seen as PrC-210 residues showing up as urinary or fecal metabolites. […] C labeled PrC-210, we found only minimal metabolism of PrC-210 (1.07%) after 48 hr (FIG. 7, unpublished data). It is well described that i) disulfide binding is reversible (see, e.g., Koji Aoyama, Int. J. Mol. Sci. 2021, 22 (9), 5010) and ii) that there are also two highly efficient thiol reducing systems in the cell (see, e.g., Cumming et al., The Journal of Biological Chemistry vol. 279, No. 21, Issue of May 21, pp. 21749-21758, 2004), which reduce disulfide bonds between glutathione and proteins in non-oxidative stress situations (see, e.g., Koji Aoyama, Int. J. Mol. Sci. 2021, 22 (9), 5010). Based upon both our experimental findings and the published literature, it would then be logical that PrC-210 disulfide bonds with proteins would be governed by the same chemical and enzymatic processes.
# [6] = 1H NMR stability of PrC-210 in deuterated water under pH titration; assay type: physicochemical
# Protocol: as §1
# [7] = system: DBA/1J mice; test: Paw swelling in DBA/1J mice immunized against collagen III; assay type: in vivo, mouse
# Source text: To show further, that this suppression of chronic inflammation applies generally to other organs than the brain, DBA/1J mice immunized against collagen III where treated systemically and topically with PrC-210.
# [8] = 1H NMR stability / thiol reactivity of PrC-210 with ammonium acetate (disulfide formation); assay type: physicochemical
# [9] = system: Caspase 8, Caspase 3/7; test: Apoptosis markers in mice irradiated with 8.68 Gy, PrC-210 given before irradiation; assay type: in vivo, mouse
# Protocol: To examine PrC-210-conferred protection in an animal model, we irradiated mice with 8.68 Gy and treated them with a 0.5MTD dose of PrC-210 30 minutes before irradiation. Normally, lethal radiation with 8.68 Gy leads to massive DNA damage and activation of the intrinsic apoptotic pathway. […] This means that the radiation insult didn't trigger a significant activation of the intrinsic apoptotic pathway nor did it trigger a mitotic arrest with p53 activation. […] This apoptotic suppression and protection lasted for the entire observation time of six days, which is a sign, that PrC-210 was still present after six days. When we looked at mouse plasma in the same experiment, we saw the same 6 days apoptotic suppression as in the brain in caspase 3/7 levels (FIG. 9F).
# [10] = system: C57 mice; test: EAE model, paralysis score after immunization with MOG peptide; assay type: in vivo, mouse
# Protocol: To show, that PrC-210 suppresses neuroinflammation which is caused by an autoimmune induction of the disease, PrC-210 was applied 24 hours before immunization of C57 mice against MOG peptide (FIG. 13A), and immediately after first paralysis symptoms developed from the autoimmunization against myelin.
# [11] = system: Cytochrome C; test: Cytochrome C release in mouse heart after 8.68 Gy, PrC-210 given 24 hours after irradiation; assay type: in vivo; details: PrC-210 0.3 MTD given 24 hours post-irradiation
# Protocol: Different from the first peak after 12 hours, this peak is not due to DNA damage and activation of the intrinsic apoptotic pathway, as there is neither an associated p53 nor 8-oxo-dG increase at 48 hours post-irradiation (data not shown), nor an activation of the intrinsic apoptotic pathway (FIG. 11B). This peak represents a massive damage of complex IV of the respiratory chain, which is located at the inner mitochondrial membrane. […] This discovery teaches us, that PrC-210 enters mitochondria and protects the proteins and lipids of the mitochondrial membranes against insults, insults which result in the release of cytochrome C. This invention applies to all diseases which are caused by damage of the mitochondria, such as aging and all age-related diseases, neurodegenerative diseases, diseases of the cardio-vascular system, such as arteriosclerosis, damage of the heart valves or main arteries, and in general to diseases caused by damage of the mitochondria membranes, the mitochondria DNA and proteins.
# [12] = system: caspase 1, complement 3 (C3); test: Inflammation markers in mouse brain after 8.68 Gy, PrC-210 given 24 hours after irradiation; assay type: in vivo, ICR mice; details: 8.68 Gy whole-body, 0.3 MTD i.p. 24 hours after irradiation
# Protocol: To visualize the effect of radiation on the immune response of the mouse brain, ICR mice received 8.68 Gy whole-body radiation (FIG. 10) at Time “0.” O.3MTD, i.p. PrC-210 was administered 24 hours after irradiation. […] The same applied to the inflammation marker, complement 3 (C3) (FIG. 12B). […] Most important, this suppression was a direct suppression of the immune response and was not an indirect suppression through protection of proteins and lipids against damage. Radiation-induced protein damage would have triggered an apoptotic response, as it can be seen in the second peak of caspase 3/7 in FIG. 12C. Therefore, this experiment teaches that PrC-210 is able to enter the brain and directly suppresses post-irradiation inflammation.
# [13] = 0.5 MTD PrC-210 before irradiation
smiles,measurement,setting,value
CNCC(CS)CNC [PrC-210],effect of ammonium acetate on hydrogen peroxide consumption of PrC-210 thiol,"[1]; ammonium acetate (5 mM) added seconds before hydrogen peroxide (0.5 mM), 5 mM PrC-210 thiol",significant enhancement; also recorded: significantly enhanced
same,consumption of free PrC-210 thiol by hydrogen peroxide,[1]; aqueous 5 mM PrC-210 thiol,dose-dependent consumption
same,toxic side effects,[2],no toxic side effects
same,body weight / weight loss,[3],immediate plateau in body weight loss
same,pKas of the two amines of PrC-210,[4],> 7.2
same,metabolism of PrC-210,[5],1.07%
same,stability at high pH after 72 hours (1H NMR),"[6]; deuterated water, pH 9.0, 72 hrs",significant change; also recorded: some instability
same,effect of the thiol blocker TCEP on PrC-210 stability,"[6]; water, pH 9.0, 72 hr, TCEP added, data not shown",doesn't influence the PrC-210 stability
same,swelling of paws,"[7]; 370 mM PrC-210 applied topically, started at paw swelling score higher than 10",significantly reduced
same,swelling of paws,"[7]; twice weekly intraperitoneal injection of 0.075 MTD PrC-210, started with first paw symptoms",significantly reduced
same,half-life,"[8]; aqueous solution with ammonium acetate, ammonium acetate added to aqueous PrC-210 mono-thiol solution, pH 7.2 (FIG. 6A)",3.1 h
same,stability of PrC-210 with ammonium acetate and TCEP (1H NMR),"[8]; deuterated water with ammonium acetate and thiol blocker TCEP, pH 7.0, 24 hours",remains stable
same,structural change of PrC-210 with ammonium acetate (1H NMR),"[8]; deuterated water with ammonium acetate, pH 7.0, 1 hour and 24 hours",substantial structural changes within hours
same,PrC-210 half-life in water,"[8]; water, previously observed",days
same,Caspase 3/7 level in mouse plasma,[9]; 0.5 MTD PrC-210 30 min before irradiation,suppressed to background
same,duration of apoptotic suppression and protection in brain,"[9]; 0.5 MTD PrC-210, entire observation time",six
same,duration of apoptotic suppression (caspase 3/7) in mouse plasma,"[9]; 0.5 MTD PrC-210, same experiment",6 days
same,Caspase 3/7 level in mouse brain,[9]; [13],suppressed to background
same,Caspase 8 level in mouse brain,[9]; [13],suppressed to background
same,development and severity of paralysis symptoms,[10]; twice weekly intraperitoneal PrC-210 started 24 hours before immunization with MOG peptide,significantly suppressing
same,development and severity of paralysis symptoms,[10]; twice weekly intraperitoneal PrC-210 started when first paralysis symptoms were observed,significantly suppressing
same,"cytochrome C release in heart muscle (second peak, 48 hours post-irradiation)",[11],suppress cytochrome C release to background
same,inflammation marker complement 3 (C3) in mouse brain,[12],significantly suppressed
same,inflammasome marker caspase 1 in mouse brain,[12]; starting eight days after radiation,significantly suppressed
